Columns and labels:
[1] = ATP pharmacokinetics: blood plasma (extracellular) ATP levels, Phase I study; type: in vivo, human; details: for Initial Extracellular ATP Concentration, Median: ITT
Protocol: The solution was administered by continuous intravenous infusions using an Ivac or similar infusion device through venous access in a peripheral vein. If venous access was a problem, either a Hickman catheter or its equivalent, or an Infusaport or its equivalent was inserted to provide vascular access.
The 50 μg/kg/min dose could be reduced to 25 μg/kg/min if adverse effects occurred. […] Succeeding infusions in that patient were at the infusion dose tolerated at the end of the previous treatment. If adverse events occurred in patients being infused at 25 μg/kg/min, the infusions were terminated and the patient received no additional infusions.

[2] = Cachexia markers Part II: blood TNF-alpha, Interleukin-6, Phase I study; type: in vivo, human
Excerpt: TNF-alpha is an acknowledged independent negative prognostic factor of morbidity and mortality in the elderly (30).

[3] = Karnofsky Performance Status, Phase I study; type: in vivo, human; details: for Karnofsky Performance Status, Change from Baseline, Mean / Karnofsky Performance Status, Change from Baseline, Median / Karnofsky Performance Status, Observed Values, Mean / Karnofsky Performance Status, Observed Values, Median: ITT
Excerpt: The present patient population was clinically deteriorating rapidly with four of the fifteen patients not meeting the protocol inclusion criteria and being granted exemptions (page 15-18). An amendment to the protocol had to be sought because Karnofsky Performance Status of some patients dropped between the screening date and the first pre-infusion date. Considering the clinical status of the present patient population at the start of the trial along with Karnofsky Performance Score being a surrogate end-point for Quality of Life in advanced, refractory, terminal cancers, these findings support claims reciting benefits to quality of life by claimed treatment in a human host in need thereof.

[4] = Quality of life (EORTC QLQ-C30), appetite, energy and body weight, Phase I study; type: in vivo, human
Excerpt: Nine qualified patients have been enrolled in the study as of Sep. 1, 2001; seven of which received the first 3 cycles of the study drug and are therefore evaluable for the primary endpoint. Two of the seven evaluable patients had advanced prostate cancer with bone metastases and one each had advanced mesothelioma, metastatic breast cancer, metastatic melanoma, metastatic colon cancer and renal cell carcinoma.
Three of these parameters are EORTC QLQ-C30 patient-oriented questionnaire, skeletal (voluntary) muscle strength and percent body fat. […] The screening value is used as the patients' baseline. In some patients a deterioration in overall quality of life between screening and week 1, prior to the administration of study drug has been observed. […] A more accurate baseline for evaluation of the efficacy of ATP treatment on cancer cachexia and quality of life parameters is therefore recommended.

[5] = Tumor burden endpoints (PSA), Phase I study; type: in vivo, human
[6] = in vivo; cited from earlier work
[7] = Week 1 (Infusion 1), baseline, N=15
[8] = patients 502-505, week 1 (pre-dose) to week 13 (follow-up)
[9] = Patient 504, while on ATP treatment
[10] = patients 502-505, week 13 follow-up

Nc1ncnc2c1ncn2[C@@H]1O[C@H](COP(=O)(O)OP(=O)(O)OP(=O)(O)O)[C@@H](O)[C@H]1O [ATP, adenosine 5′-triphosphate]
blood plasma (extracellular) ATP levels ([1]; ATP continuously for eight hours): increases
Initial Extracellular ATP Concentration, Median ([1]; Week 1 (Infusion 1), 4 hours into infusion, N=13): 0.109 µM
Initial Extracellular ATP Concentration, Median ([1]; Week 1 (Infusion 1), 8.25 hours, N=1): 0.141 µM
Initial Extracellular ATP Concentration, Median ([1]; Week 1 (Infusion 1), 9 hours, N=10): 0.150 µM
Initial Extracellular ATP Concentration, Median ([1]; Week 1 (Infusion 1), 10 hours, N=12): 0.091 µM
Initial Extracellular ATP Concentration, Median ([1]; Week 1 (Infusion 1), 11 hours, N=12): 0.062 µM
Initial Extracellular ATP Concentration, Median ([1]; Week 1 (Infusion 1), 12 hours, N=11): 0.044 µM
Initial Extracellular ATP Concentration, Median ([1]; Week 1 (Infusion 1), 14 hours, N=8): 0.029 µM
Initial Extracellular ATP Concentration, Median ([1]; Week 1 (Infusion 1), 16 hours, N=10): 0.050 µM
Initial Extracellular ATP Concentration, Median ([1]; Week 1 (Infusion 1), 20 hours, N=8): 0.052 µM
Initial Extracellular ATP Concentration, Median ([1]; Week 1 (Infusion 1), 24 hours, N=12): 0.079 µM
Initial Extracellular ATP Concentration, Median ([1]; Week 1 (Infusion 1), […], N=10): 0.238 µM
Initial Extracellular ATP Concentration, Median ([1]; Week 3 (Infusion 3), 4 hours into infusion, N=9): 0.200 µM
Initial Extracellular ATP Concentration, Median ([1]; Week 3 (Infusion 3), 8 hours (before the end), N=9): 0.240 µM
Initial Extracellular ATP Concentration, Median ([1]; Week 3 (Infusion 3), 8.25 hours, N=1): 0.055 µM
Initial Extracellular ATP Concentration, Median ([1]; Week 3 (Infusion 3), 9 hours, N=9): 0.170 µM
Initial Extracellular ATP Concentration, Median ([1]; Week 3 (Infusion 3), 10 hours, N=9): 0.060 µM
Initial Extracellular ATP Concentration, Median ([1]; Week 3 (Infusion 3), 11 hours, N=10): 0.060 µM
Initial Extracellular ATP Concentration, Median ([1]; Week 3 (Infusion 3), 12 hours, N=8): 0.065 µM
Initial Extracellular ATP Concentration, Median ([1]; Week 3 (Infusion 3), 14 hours, N=6): 0.032 µM
Initial Extracellular ATP Concentration, Median ([1]; Week 3 (Infusion 3), 16 hours, N=5): 0.040 µM
Initial Extracellular ATP Concentration, Median ([1]; Week 3 (Infusion 3), 20 hours, N=5): 0.070 µM
Initial Extracellular ATP Concentration, Median ([1]; Week 3 (Infusion 3), 24 hours, N=8): 0.044 µM
Initial Extracellular ATP Concentration, Median ([1]; Week 3 (Infusion 3), Time ‘0’ (pre-infusion), N=10): 0.055 µM
Initial Extracellular ATP Concentration, Median ([1]; Week 3 (Infusion 3), […], N=9): 0.200 µM
Initial Extracellular ATP Concentration, Median ([1]; Week 8 (infusion 8), 4 hours into infusion, N=3): 0.390 µM
Initial Extracellular ATP Concentration, Median ([1]; Week 8 (infusion 8), Time ‘0’ (pre-infusion), N=3): 0.080 µM
Interleukin-6 levels ([2]; upon ATP treatment): not stabilized
levels of blood tumor necrosis factor-alpha (TNF-alpha) ([2]; week 13): stabilize
Karnofsky Performance Status ([3]; ITT patient population): stabilize
Karnofsky Performance Status, Change from Baseline, Mean [3, 7]: 0.0%
Karnofsky Performance Status, Change from Baseline, Median [3, 7]: 0.0%
Karnofsky Performance Status, Observed Values, Mean [3, 7]: 78.0%
Karnofsky Performance Status, Observed Values, Median [3, 7]: 80.00%
Karnofsky Performance Status, Change from Baseline, Mean ([3]; Week 2 (Infusion 2), N=14): −2.1%
Karnofsky Performance Status, Change from Baseline, Median ([3]; Week 2 (Infusion 2), N=14): 0.0%
Karnofsky Performance Status, Observed Values, Mean ([3]; Week 2 (Infusion 2), N=14): 77.1%
Karnofsky Performance Status, Observed Values, Median ([3]; Week 2 (Infusion 2), N=14): 75.0%
Karnofsky Performance Status, Change from Baseline, Mean ([3]; Week 3 (Infusion 3), N=13): −2.3%
Karnofsky Performance Status, Change from Baseline, Median ([3]; Week 3 (Infusion 3), N=13): 0.0%
Karnofsky Performance Status, Observed Values, Mean ([3]; Week 3 (Infusion 3), N=13): 76.9%
Karnofsky Performance Status, Observed Values, Median ([3]; Week 3 (Infusion 3), N=13): 80.0%
Karnofsky Performance Status, Change from Baseline, Mean ([3]; Week 4 (Infusion 4), N=11): −0.9%
Karnofsky Performance Status, Change from Baseline, Median ([3]; Week 4 (Infusion 4), N=11): 0.0%
Karnofsky Performance Status, Observed Values, Mean ([3]; Week 4 (Infusion 4), N=11): 78.2%
Karnofsky Performance Status, Observed Values, Median ([3]; Week 4 (Infusion 4), N=11): 80.0%
Karnofsky Performance Status, Change from Baseline, Mean ([3]; Week 5 (Infusion 5), N=10): −7.0%
Karnofsky Performance Status, Change from Baseline, Median ([3]; Week 5 (Infusion 5), N=10): 0.0%
Karnofsky Performance Status, Observed Values, Mean ([3]; Week 5 (Infusion 5), N=10): 71.0%
Karnofsky Performance Status, Observed Values, Median ([3]; Week 5 (Infusion 5), N=10): 75.0%
Karnofsky Performance Status, Change from Baseline, Mean ([3]; Week 6 (Infusion 6), N=9): −4.4%
Karnofsky Performance Status, Change from Baseline, Median ([3]; Week 6 (Infusion 6), N=9): 0.0%
Karnofsky Performance Status, Observed Values, Mean ([3]; Week 6 (Infusion 6), N=9): 74.4%
Karnofsky Performance Status, Observed Values, Median ([3]; Week 6 (Infusion 6), N=9): 80.0%
Karnofsky Performance Status, Change from Baseline, Mean ([3]; Week 7 (Infusion 7), N=7): −4.3%
Karnofsky Performance Status, Change from Baseline, Median ([3]; Week 7 (Infusion 7), N=7): 0.0%
Karnofsky Performance Status, Observed Values, Mean ([3]; Week 7 (Infusion 7), N=7): 72.9%
Karnofsky Performance Status, Observed Values, Median ([3]; Week 7 (Infusion 7), N=7): 70.0%
Karnofsky Performance Status, Change from Baseline, Mean ([3]; Week 8 (Infusion 8), N=7): −5.7%
Karnofsky Performance Status, Change from Baseline, Median ([3]; Week 8 (Infusion 8), N=7): −10.0%
Karnofsky Performance Status, Observed Values, Mean ([3]; Week 8 (Infusion 8), N=7): 71.4%
Karnofsky Performance Status, Observed Values, Median ([3]; Week 8 (Infusion 8), N=7): 70.0%
Karnofsky Performance Status, Change from Baseline, Mean ([3]; Week 10 (Follow-up), N=6): −5.0%
Karnofsky Performance Status, Change from Baseline, Median ([3]; Week 10 (Follow-up), N=6): −5.0%
Karnofsky Performance Status, Observed Values, Mean ([3]; Week 10 (Follow-up), N=6): 73.3%
Karnofsky Performance Status, Observed Values, Median ([3]; Week 10 (Follow-up), N=6): 70.0%
Karnofsky Performance Status, Change from Baseline, Mean ([3]; Week 13 (Follow-up), N=5): −4.0%
Karnofsky Performance Status, Change from Baseline, Median ([3]; Week 13 (Follow-up), N=5): 0.0%
Karnofsky Performance Status, Observed Values, Mean ([3]; Week 13 (Follow-up), N=5): 76.0%
Karnofsky Performance Status, Observed Values, Median ([3]; Week 13 (Follow-up), N=5): 80.0%
Karnofsky Performance Status [3, 8]: Small increases
patient's comment on energy / appetite ([4]; Patient 502, during the treatment period): improved energy levels
patient's comment on energy / appetite ([4]; Patient 503, during ATP therapy): improved energy and appetite
patient's comment on energy / appetite [4, 9]: increased energy and appetite
weight [4, 9]: increasing
patient's comment on energy / appetite ([4]; Patient 505, while on study): improved energy and appetite
patient's comment on energy / appetite ([4]; Patient 506): more energy and improved appetite
Other Endpoints (patient's comment on energy) ([4]; Patient 507, while on ATP Rx): Felt more energy
patient's comment on energy / activity ([4]; Patient 509): subjective improvement in energy and activity
subjective comments of several patients on appetite and energy ([4]; during the study, first nine patients): improved appetite and energy
Global Health Status of the QOL EORTC QLQ-C30 ([4]; patients 502-505, screening (week <1) to follow-up (week 10)): Increases
appetite loss ([4]; patients 502-505, screening to week 10 (follow-up)): Decreases
body weight [4, 8]: Stabilization
Global Health Status of the QOL EORTC QLQ-C30 [4, 10]: decline
appetite loss [4, 10]: return to screening baseline
Tumor burden Endpoints: PSA Post ([5]; Patient 503, PSA Pre 4000): Post 3903
PSA compared to baseline ([5]; Patient 503, at the end of follow up): unchanged
Tumor burden Endpoints: PSA ([5]; Patient 507, increased after stopping Rx): PSA unchanged
half-life of expanded ATP pools in red blood cells [6]: about 6 hours

From US20070203091A1, “Methods and therapeutic compositions for improving liver, blood flow and skeletal muscle functions in advanced diseases and aging” (priority 2006, published 2007)
